# Legend:
# [1] = target: T1, Progesterone receptor (Homo sapiens) (UniProt P06401)
# T1 sequence (whole entry): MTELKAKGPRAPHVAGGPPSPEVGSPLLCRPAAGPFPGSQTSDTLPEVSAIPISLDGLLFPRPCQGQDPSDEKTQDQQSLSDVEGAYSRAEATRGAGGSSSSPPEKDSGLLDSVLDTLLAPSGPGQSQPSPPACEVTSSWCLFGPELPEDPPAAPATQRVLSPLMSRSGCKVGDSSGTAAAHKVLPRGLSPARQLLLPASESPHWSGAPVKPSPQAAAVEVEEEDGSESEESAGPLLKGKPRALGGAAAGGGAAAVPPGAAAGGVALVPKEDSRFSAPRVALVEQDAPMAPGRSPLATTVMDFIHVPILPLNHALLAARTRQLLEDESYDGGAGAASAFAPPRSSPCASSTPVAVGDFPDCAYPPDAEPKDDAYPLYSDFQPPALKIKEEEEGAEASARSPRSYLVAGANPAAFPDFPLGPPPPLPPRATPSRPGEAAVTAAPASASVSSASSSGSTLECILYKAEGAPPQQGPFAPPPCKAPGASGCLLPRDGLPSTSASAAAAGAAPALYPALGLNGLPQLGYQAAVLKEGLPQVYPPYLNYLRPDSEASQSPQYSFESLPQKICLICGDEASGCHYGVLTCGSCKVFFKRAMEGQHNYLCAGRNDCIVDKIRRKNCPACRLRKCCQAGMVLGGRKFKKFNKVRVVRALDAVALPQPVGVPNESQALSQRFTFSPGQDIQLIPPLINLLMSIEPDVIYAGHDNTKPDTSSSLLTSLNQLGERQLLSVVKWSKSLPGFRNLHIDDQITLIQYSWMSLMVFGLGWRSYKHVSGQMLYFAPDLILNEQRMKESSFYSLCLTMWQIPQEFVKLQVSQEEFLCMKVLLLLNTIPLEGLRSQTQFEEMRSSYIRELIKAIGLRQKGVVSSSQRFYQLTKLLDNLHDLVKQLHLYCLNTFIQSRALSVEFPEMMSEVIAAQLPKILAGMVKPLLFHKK
# Description: (§1) Antagonist activity against human Progesterone receptor by displacement of radioligand
# [2] = target: T2, Mineralocorticoid receptor (Homo sapiens) (UniProt P08235)
# T2 sequence (whole entry): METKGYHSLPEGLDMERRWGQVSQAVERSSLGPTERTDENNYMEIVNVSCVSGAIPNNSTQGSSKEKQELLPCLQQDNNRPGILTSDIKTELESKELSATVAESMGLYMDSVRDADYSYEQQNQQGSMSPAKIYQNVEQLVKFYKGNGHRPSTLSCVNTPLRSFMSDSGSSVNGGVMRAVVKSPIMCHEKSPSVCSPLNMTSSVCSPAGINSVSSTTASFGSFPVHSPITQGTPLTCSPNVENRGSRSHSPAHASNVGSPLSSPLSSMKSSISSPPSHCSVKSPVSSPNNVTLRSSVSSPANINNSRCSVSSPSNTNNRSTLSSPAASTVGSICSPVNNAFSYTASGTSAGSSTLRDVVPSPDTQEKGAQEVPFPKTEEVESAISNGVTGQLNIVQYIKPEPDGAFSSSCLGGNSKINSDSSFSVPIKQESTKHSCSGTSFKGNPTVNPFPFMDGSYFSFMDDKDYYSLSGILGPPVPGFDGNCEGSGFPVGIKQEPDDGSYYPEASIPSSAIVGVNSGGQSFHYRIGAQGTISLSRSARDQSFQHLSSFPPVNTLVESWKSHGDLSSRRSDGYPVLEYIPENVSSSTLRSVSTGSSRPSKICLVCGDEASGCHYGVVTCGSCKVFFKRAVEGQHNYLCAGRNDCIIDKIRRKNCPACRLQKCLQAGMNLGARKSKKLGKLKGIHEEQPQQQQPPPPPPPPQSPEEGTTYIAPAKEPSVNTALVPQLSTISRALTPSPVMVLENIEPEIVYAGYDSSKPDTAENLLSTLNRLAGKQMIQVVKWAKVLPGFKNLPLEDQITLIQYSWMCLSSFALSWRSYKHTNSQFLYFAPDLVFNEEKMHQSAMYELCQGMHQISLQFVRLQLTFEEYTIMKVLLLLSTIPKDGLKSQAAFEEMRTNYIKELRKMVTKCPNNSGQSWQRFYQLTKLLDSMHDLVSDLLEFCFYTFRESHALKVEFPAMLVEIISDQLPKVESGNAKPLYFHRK
# Estrogen receptor beta [3] = target: T3, Estrogen receptor beta (Homo sapiens, UniProt Q92731); experiment: Displacement of radioligand from human Estrogen receptor beta, percent inhibition at 10 uM
# T3 sequence (Q92731 whole entry): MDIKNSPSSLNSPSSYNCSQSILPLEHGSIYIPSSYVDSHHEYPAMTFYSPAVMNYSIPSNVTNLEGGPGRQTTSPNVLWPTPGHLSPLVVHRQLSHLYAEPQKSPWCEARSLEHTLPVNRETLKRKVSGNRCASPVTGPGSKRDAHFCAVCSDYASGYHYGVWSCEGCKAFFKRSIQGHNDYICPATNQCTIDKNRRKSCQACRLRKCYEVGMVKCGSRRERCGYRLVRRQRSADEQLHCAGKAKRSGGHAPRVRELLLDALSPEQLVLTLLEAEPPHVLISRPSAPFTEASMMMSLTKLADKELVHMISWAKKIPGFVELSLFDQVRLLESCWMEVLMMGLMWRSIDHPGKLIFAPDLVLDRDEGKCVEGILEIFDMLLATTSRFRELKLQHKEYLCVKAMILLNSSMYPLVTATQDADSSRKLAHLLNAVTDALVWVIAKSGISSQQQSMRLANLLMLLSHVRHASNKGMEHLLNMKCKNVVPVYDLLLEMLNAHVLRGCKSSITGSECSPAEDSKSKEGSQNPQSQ
# [4] = target: T4, Glucocorticoid receptor (Homo sapiens) (UniProt P04150)
# T4 sequence (whole entry): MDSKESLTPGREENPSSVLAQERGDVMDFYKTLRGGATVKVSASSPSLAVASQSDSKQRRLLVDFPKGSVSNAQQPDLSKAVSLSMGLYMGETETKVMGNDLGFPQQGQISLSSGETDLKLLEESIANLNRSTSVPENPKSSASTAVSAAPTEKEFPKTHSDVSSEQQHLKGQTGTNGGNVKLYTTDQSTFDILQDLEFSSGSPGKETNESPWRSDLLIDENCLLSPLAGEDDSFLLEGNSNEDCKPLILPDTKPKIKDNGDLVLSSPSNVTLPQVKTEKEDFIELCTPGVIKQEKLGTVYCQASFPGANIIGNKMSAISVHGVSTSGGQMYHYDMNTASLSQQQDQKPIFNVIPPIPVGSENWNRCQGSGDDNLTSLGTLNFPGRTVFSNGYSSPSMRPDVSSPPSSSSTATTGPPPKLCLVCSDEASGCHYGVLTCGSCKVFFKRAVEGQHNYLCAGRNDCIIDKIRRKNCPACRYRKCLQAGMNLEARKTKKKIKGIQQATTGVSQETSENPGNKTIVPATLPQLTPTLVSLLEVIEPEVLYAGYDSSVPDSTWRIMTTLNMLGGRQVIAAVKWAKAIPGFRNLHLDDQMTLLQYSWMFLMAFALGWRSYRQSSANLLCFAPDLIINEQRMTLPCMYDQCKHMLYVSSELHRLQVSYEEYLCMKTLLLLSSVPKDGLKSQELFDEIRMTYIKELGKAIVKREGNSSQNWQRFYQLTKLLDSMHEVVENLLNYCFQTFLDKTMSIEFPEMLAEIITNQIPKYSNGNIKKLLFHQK
# Description: (§2) Antagonist activity as displacement of 10 nM [3H]dexamethasone from human Glucocorticoid receptor
# [5] = target: T2, Mineralocorticoid receptor (Homo sapiens); experiment: Antagonist activity against human mineralocorticoid receptor as displacement of radioligand, percent […]; format: functional
# [6] = target: T1, Progesterone receptor (Homo sapiens); details: 1 uM
# Description: Antagonist activity against human Progesterone receptor as displacement of radioligand, percent inhibition at 1 uM
# [7] = target: T5, Estrogen receptor (Homo sapiens) (UniProt P03372); experiment: Displacement of radioligand from human Estrogen receptor alpha, percent inhibition at 10 uM
# T5 sequence (whole entry): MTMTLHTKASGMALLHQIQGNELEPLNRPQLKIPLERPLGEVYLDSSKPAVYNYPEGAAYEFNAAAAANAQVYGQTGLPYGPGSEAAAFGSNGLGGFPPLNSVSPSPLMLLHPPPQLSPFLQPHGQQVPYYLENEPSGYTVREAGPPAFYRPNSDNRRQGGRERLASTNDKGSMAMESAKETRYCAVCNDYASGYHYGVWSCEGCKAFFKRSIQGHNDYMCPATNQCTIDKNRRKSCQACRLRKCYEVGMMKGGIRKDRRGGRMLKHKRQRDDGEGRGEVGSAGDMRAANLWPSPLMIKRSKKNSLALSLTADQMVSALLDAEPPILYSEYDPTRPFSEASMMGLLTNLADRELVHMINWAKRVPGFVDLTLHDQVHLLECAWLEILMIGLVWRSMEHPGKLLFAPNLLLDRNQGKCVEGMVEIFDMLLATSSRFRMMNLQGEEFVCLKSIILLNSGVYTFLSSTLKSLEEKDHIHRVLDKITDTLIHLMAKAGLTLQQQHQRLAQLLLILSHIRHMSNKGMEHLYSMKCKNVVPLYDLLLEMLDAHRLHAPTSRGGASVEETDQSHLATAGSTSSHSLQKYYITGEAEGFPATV
# [8] = target: T2, Mineralocorticoid receptor (Homo sapiens); remark: listed apart in the source
# Glucocorticoid receptor = target: T6, Glucocorticoid receptor (Homo sapiens, UniProt P04150); experiment: Displacement of 10 nM [3H]dexamethasone from human Glucocorticoid receptor
# T6 sequence (P04150 whole entry): T4 sequence (whole entry)
# Androgen receptor = target: T7, Androgen receptor (Homo sapiens, UniProt P10275); experiment: Displacement of [3H]DHT from human Androgen receptor
# T7 sequence (P10275 whole entry): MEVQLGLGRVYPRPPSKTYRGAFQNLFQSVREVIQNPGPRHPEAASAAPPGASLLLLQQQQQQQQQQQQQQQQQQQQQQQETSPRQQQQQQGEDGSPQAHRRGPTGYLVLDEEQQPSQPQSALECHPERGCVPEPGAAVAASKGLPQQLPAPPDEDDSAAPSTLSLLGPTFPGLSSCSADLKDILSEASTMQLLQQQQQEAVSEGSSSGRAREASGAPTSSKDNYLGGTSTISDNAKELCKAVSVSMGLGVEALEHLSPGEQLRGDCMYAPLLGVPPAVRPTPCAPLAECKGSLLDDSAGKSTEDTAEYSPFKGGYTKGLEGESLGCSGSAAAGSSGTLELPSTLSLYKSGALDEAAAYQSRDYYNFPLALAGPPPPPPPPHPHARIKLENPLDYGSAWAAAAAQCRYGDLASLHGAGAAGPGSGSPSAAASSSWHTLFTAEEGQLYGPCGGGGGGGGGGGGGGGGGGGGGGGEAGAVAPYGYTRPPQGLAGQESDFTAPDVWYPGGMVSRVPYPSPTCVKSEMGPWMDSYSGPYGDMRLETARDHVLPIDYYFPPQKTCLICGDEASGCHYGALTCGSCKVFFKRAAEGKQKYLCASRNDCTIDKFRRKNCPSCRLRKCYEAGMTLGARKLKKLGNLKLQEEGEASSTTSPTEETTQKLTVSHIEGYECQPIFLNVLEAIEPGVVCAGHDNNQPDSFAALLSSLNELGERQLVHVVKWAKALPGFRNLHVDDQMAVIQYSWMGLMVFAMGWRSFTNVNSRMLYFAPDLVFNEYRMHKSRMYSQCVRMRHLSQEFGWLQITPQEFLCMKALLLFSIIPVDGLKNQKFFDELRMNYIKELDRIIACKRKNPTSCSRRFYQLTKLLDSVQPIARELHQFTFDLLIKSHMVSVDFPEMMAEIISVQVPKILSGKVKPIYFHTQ
# Progesterone receptor = target: T8, Progesterone receptor (Homo sapiens, UniProt P06401); experiment: Displacement of radioligand from human Progesterone receptor
# T8 sequence (P06401 whole entry): T1 sequence (whole entry)
# Estrogen receptor beta [9] = target: T3, Estrogen receptor beta; experiment: Displacement of radioligand from human ER beta
# [10] = target: T1, Progesterone receptor (Homo sapiens); remark: listed apart in the source
# Description: as §1
# Estrogen receptor = target: T9, Estrogen receptor (Homo sapiens, UniProt P03372); experiment: Displacement of radioligand from human Estrogen receptor alpha
# T9 sequence (P03372 whole entry): T5 sequence (whole entry)
# [11] = target: T4, Glucocorticoid receptor (Homo sapiens); remark: listed apart in the source
# Description: as §2
Structure (SMILES),Kif [1] [nM],inhibition (Estrogen receptor beta [3]) [%],Kif [4] [nM],inhibition [7] [%],Kif [8] [nM],Ki (Glucocorticoid receptor) [µM],Ki (Androgen receptor) [µM],Ki (Progesterone receptor) [µM],also measured
CC#C[C@]1(O)CC[C@H]2[C@@H]3CCC4=CC(=O)CCC4=C3[C@@H](c3ccc(N(C)C)cc3)C[C@@]21C,11.8,92,2,44,–,–,–,–,Kif [2]: < 10 nM; inhibition [5]: 69.7%; inhibition [6]: 100%
"O=C1C=C2CCc3cc(O)ccc3C2(Cc2ccccc2)CC1 (single isomer, unassigned; form 1) [listing 1 of 2 here]",–,–,–,–,–,> 10,> 10,> 10,–
"COc1ccc2c(c1)CCC1=CC(=O)CCC12Cc1ccccc1 (single isomer, unassigned; form 1) [listing 1 of 2 here]",> 1000,–,> 1000,27,> 1000,–,–,–,–
"COc1ccc2c(c1)CCC1=CC(=O)CCC12Cc1ccccc1 (single isomer, unassigned; form 2) [listing 1 of 2 here]",–,–,> 1000,–,–,–,–,–,Kif [2]: > 1000 nM; Kif [10]: > 1000 nM
"COc1ccc2c(c1)CCC1=CC(=O)CCC12Cc1ccccc1 (single isomer, unassigned; form 2) [listing 2 of 2 here]",–,–,–,–,–,> 10,0.054,> 10,Ki (Estrogen receptor): > 10 µM; Ki (Estrogen receptor beta [9]): > 10 µM
"O=C1C=C2CCc3cc(O)ccc3C2(Cc2ccccc2)CC1 (single isomer, unassigned; form 1) [listing 2 of 2 here]",> 1000,24,–,36,> 1000,–,–,–,Kif [11]: > 1000 nM

# Now from value to compound, other results behind:
Kif [1] [nM],inhibition (Estrogen receptor beta [3]) [%],Kif [4] [nM],inhibition [7] [%],Kif [8] [nM],Ki (Glucocorticoid receptor) [µM],Ki (Androgen receptor) [µM],Ki (Progesterone receptor) [µM],Structure (SMILES),also measured
> 1000,39,> 1000,70,> 1000,–,–,–,"O=C1C=C2CCc3cc(O)ccc3C2(Cc2ccccc2)CC1 (single isomer, unassigned; form 2) [listing 1 of 2 here]",–
–,–,–,–,–,0.157,0.18,> 10,"O=C1C=C2CCc3cc(O)ccc3C2(Cc2ccccc2)CC1 (single isomer, unassigned; form 2) [listing 2 of 2 here]",–
–,–,–,–,–,> 10,0.69,> 10,"COc1ccc2c(c1)CCC1=CC(=O)CCC12Cc1ccccc1 (single isomer, unassigned; form 1) [listing 2 of 2 here]",Ki (Estrogen receptor beta [9]): > 10 µM

# From ChEMBL document CHEMBL1135457 (J Med Chem, 2002)
